biological target: human TYK2 (JH2domain-pseudokinase) (Homo sapiens (Human), UniProt P29597); assay: TYK2 JH2 Domain Binding Assay (KINOMEscan, DiscoveRx); settings: 11-point dilution, duplicate
Summary of the method: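 Kd from duplicate 11-point 3-fold dilutions starting at 30,000 nM, fitted by Hill equation with slope fixed at −1. Compounds (final 0.9% DMSO) displace DNA-tagged HEK293-expressed TYK2 JH2 fusion (<0.1 nM) from ligand-coated beads over 1 h at room temperature; eluted kinase read by qPCR.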

human TYK2 (JH2domain-pseudokinase), sequence (P29597 556-888): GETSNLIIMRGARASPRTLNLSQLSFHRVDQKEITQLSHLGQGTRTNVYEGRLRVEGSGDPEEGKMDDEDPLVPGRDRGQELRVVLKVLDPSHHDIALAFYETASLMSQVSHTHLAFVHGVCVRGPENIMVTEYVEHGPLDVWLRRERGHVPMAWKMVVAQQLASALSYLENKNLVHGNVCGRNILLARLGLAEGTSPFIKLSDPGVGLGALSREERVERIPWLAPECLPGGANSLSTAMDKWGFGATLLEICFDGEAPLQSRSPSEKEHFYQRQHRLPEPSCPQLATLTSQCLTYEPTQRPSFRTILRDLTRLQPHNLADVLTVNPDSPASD

SMILES | Kd
CS(=O)(=O)c1cc([C@H]2CCCO2)ccc1Nc1cc(NC(=O)C2CC2(F)F)nc2[nH]c(C(F)F)nc12 (stereo partly drawn) [I-329, N-(2-(difluoromethyl)-7-((2-(methylsulfonyl)-4-((R)-tetrahydrofuran-2-yl)phenyl)amino)-3H-imidazo[4,5-b]pyridin-5-yl)-2,2-difluorocyclopropane-1-carboxamide] | 1 to 10 nM
COc1c(Nc2cc(NC(=O)[C@H]3C[C@@H]3F)nc3[nH]c(C)nc23)cccc1-c1ncn(C)n1 [I-373, (1R,2S)-2-fluoro-N-(7-((2-methoxy-3-(1-methyl-1H-1,2,4-triazol-3-yl)phenyl)amino)-2-methyl-3H-imidazo[4,5-b]pyridin-5-yl)cyclopropane-1-carboxamide] | 1 to 10 nM
Cc1nc2c(Nc3ccc([C@@H]4CCC(C)(C)CO4)cc3S(C)(=O)=O)cc(NC(=O)C3CC3)nc2[nH]1 [I-550, (S)—N-(7-((4-(5,5-dimethyltetrahydro-2H-pyran-2-yl)-2-(methylsulfonyl)phenyl)amino)-2-methyl-3H-imidazo[4,5-b]pyridin-5-yl)cyclopropanecarboxamide] | < 0.1 nM
Cc1nc2c(Nc3ccc([C@@H]4CCCCO4)cc3S(C)(=O)=O)cc(NC(=O)[C@@H]3CC3(F)F)nc2[nH]1 [I-279, (S)-2,2-difluoro-N-(2-methyl-7-((2-(methylsulfonyl)-4-((S)-tetrahydro-2H-pyran-2-yl)phenyl)amino)-3H-imidazo[4,5-b]pyridin-5-yl)cyclopropane-1-carboxamide] | 1 to 10 nM
COc1c(Nc2cc(Nc3cnc(C)c(C)n3)nc3[nH]c(C(F)F)nc23)cccc1-c1nnn(C)n1 [I-21, 2-(difluoromethyl)-N5-(5,6-dimethylpyrazin-2-yl)-N7-(2-methoxy-3-(2-methyl-2H-tetrazol-5-yl)phenyl)-3H-imidazo[4,5-b]pyridine-5,7-diamine] | 0.5 to 1 nM
Cc1nc2c(Nc3ccc([C@H]4CCC(C)(C)CO4)cc3S(C)(=O)=O)cc(Nc3cnc(C)c(C)n3)nc2[nH]1 [I-609, (R)—N5-(5,6-dimethylpyrazin-2-yl)-N7-(4-(5,5-dimethyltetrahydro-2H-pyran-2-yl)-2-(methylsulfonyl)phenyl)-2-methyl-3H-imidazo[4,5-b]pyridine-5,7-diamine] | 0.1 to 0.5 nM
Cc1nc2c(Nc3ccc(-c4cnn(C)c4)cc3N(C)S(C)(=O)=O)cc(NC(=O)[C@H]3CC3(F)F)nc2[nH]1 [I-234, (R)-2,2-difluoro-N-(2-methyl-7-((4-(1-methyl-1H-pyrazol-4-yl)-2-(N-methylmethylsulfonamido)phenyl)amino)-3H-imidazo[4,5-b]pyridin-5-yl)cyclopropane-1-carboxamide] | 1 to 10 nM
CN(c1ccccc1Nc1cc(Nc2cccc(C#N)n2)nc2[nH]c(C(F)F)nc12)S(=O)(=O)C1CC1 [I-179] | 0.1 to 0.5 nM
Cc1nc2c(Nc3ccc(-c4nc(C)c(C)s4)cc3S(C)(=O)=O)cc(Nc3cccc(C#N)n3)nc2[nH]1 [I-506, 6-((7-((4-(4,5-dimethylthiazol-2-yl)-2-(methylsulfonyl)phenyl)amino)-2-methyl-3H-imidazo[4,5-b]pyridin-5-yl)amino)picolinonitrile] | 0.5 to 1 nM
CS(=O)(=O)c1cc([C@@H]2CCCO2)ccc1Nc1cc(NC(=O)C2CC2(F)F)nc2[nH]c(C(F)F)nc12 (stereo partly drawn) [I-327, N-(2-(difluoromethyl)-7-((2-(methylsulfonyl)-4-((S)-tetrahydrofuran-2-yl)phenyl)amino)-3H-imidazo[4,5-b]pyridin-5-yl)-2,2-difluorocyclopropane-1-carboxamide] | 0.1 to 0.5 nM
COc1c(Nc2cc(Nc3cccc(C#N)n3)nc3[nH]c(C)nc23)cccc1-c1nc(C)nn1C [I-542, 6-((7-((3-(1,3-dimethyl-1H-1,2,4-triazol-5-yl)-2-methoxyphenyl)amino)-2-methyl-3H-imidazo[4,5-b]pyridin-5-yl)amino)picolinonitrile] | 0.5 to 1 nM
Cc1nc2c(Nc3ccccc3N(C(F)F)S(C)(=O)=O)cc(Nc3cccc(C#N)n3)nc2[nH]1 [I-249, N-(2-((5-((6-cyanopyridin-2-yl)amino)-2-methyl-3H-imidazo[4,5-b]pyridin-7-yl)amino)phenyl)-N-(difluoromethyl)methanesulfonamide] | 1 to 10 nM
CCOc1ccc(Nc2cc(Nc3ccc(F)cc3S(C)(=O)=O)c3nc(C(F)F)[nH]c3n2)nc1C#N [I-607, 6-((2-(difluoromethyl)-7-((4-fluoro-2-(methylsulfonyl)phenyl)amino)-3H-imidazo[4,5-b]pyridin-5-yl)amino)-3-ethoxypicolinonitrile] | 0.1 to 0.5 nM
Cc1nc2c(Nc3ccc(-c4nn(C)c(C)c4C)cc3S(C)(=O)=O)cc(NC(=O)C3CC3)nc2[nH]1 [I-560, N-(2-methyl-7-((2-(methylsulfonyl)-4-(1,4,5-trimethyl-1H-pyrazol-3-yl)phenyl)amino)-3H-imidazo[4,5-b]pyridin-5-yl)cyclopropanecarboxamide] | < 0.1 nM
CS(=O)(=O)c1ccccc1Nc1cc(NC(=O)C2CC2)nc2[nH]c(C(F)F)nc12 [I-159] | 0.1 to 0.5 nM
COc1c(Nc2cc(Nc3cccc(C#N)n3)nc3[nH]c(C)nc23)cccc1-c1ncnn1C [I-539, 6-((7-((2-methoxy-3-(1-methyl-1H-1,2,4-triazol-5-yl)phenyl)amino)-2-methyl-3H-imidazo[4,5-b]pyridin-5-yl)amino)picolinonitrile] | 0.5 to 1 nM

Second part, the compound after the results:

Kd | SMILES
< 0.1 nM | Cc1nc2c(Nc3ccc(-c4cncn4C)cc3S(C)(=O)=O)cc(NC(=O)C3CC3)nc2[nH]1 [I-215, N-(2-methyl-7-((4-(1-methyl-1H-imidazol-5-yl)-2-(methylsulfonyl)phenyl)amino)-3H-imidazo[4,5-b]pyridin-5-yl)cyclopropanecarboxamide]
0.1 to 0.5 nM | Cc1nc2c(Nc3ccc([C@@H]4CCCCO4)cc3S(C)(=O)=O)cc(NC(=O)[C@H]3CC3(F)F)nc2[nH]1 [I-323, 2,2-difluoro-N-(2-methyl-7-((2-(methylsulfonyl)-4-((S)-tetrahydro-2H-pyran-2-yl)phenyl)amino)-3H-imidazo[4,5-b]pyridin-5-yl)cyclopropane-1-carboxamide]
0.1 to 0.5 nM | Cn1cnc(-c2ccc(Nc3cc(NC(=O)C4CC4)nc4[nH]c(C(F)F)nc34)c(S(C)(=O)=O)c2)c1 [I-62, N-(2-(difluoromethyl)-7-((4-(1-methyl-1H-imidazol-4-yl)-2-(methylsulfonyl)phenyl)amino)-3H-imidazo[4,5-b]pyridin-5-yl)cyclopropanecarboxamide]
0.1 to 0.5 nM | COc1c(Nc2cc(Nc3cc4c(nn3)CCC4)nc3[nH]c(C(F)F)nc23)cccc1-c1cnn(C)n1 [I-648]
0.1 to 0.5 nM | COCc1ccc(Nc2cc(Nc3ccc(F)cc3S(C)(=O)=O)c3nc(C(F)F)[nH]c3n2)nn1 [I-635]
< 0.1 nM | CN(c1ccccc1Nc1cc(Nc2cccc(C#N)n2)nc2[nH]c(C(F)F)nc12)S(C)(=O)=O [I-44, N-(2-((5-((6-cyanopyridin-2-yl)amino)-2-(difluoromethyl)-3H-imidazo[4,5-b]pyridin-7-yl)amino)phenyl)-N-methylmethanesulfonamide]
0.1 to 0.5 nM | Cc1cc(-c2ccc(Nc3cc(NC(=O)C4CC4)nc4[nH]c(C(F)F)nc34)c(N(C)S(C)(=O)=O)c2)nn1C [I-187, N-(2-(difluoromethyl)-7-((4-(1,5-dimethyl-1H-pyrazol-3-yl)-2-(N-methylmethylsulfonamido)phenyl)amino)-3H-imidazo[4,5-b]pyridin-5-yl)cyclopropanecarboxamide]
< 0.1 nM | Cc1ccc(Nc2cc(Nc3ccccc3N(C)S(C)(=O)=O)c3nc(C(F)F)[nH]c3n2)nc1C#N [I-60, N-(2-((5-((6-cyano-5-methylpyridin-2-yl)amino)-2-(difluoromethyl)-3H-imidazo[4,5-b]pyridin-7-yl)amino)phenyl)-N-methylmethanesulfonamides]
0.1 to 0.5 nM | CN=S(C)(=O)c1ccccc1Nc1cc(NC(=O)C2CC2)nc2[nH]c(C(F)F)nc12 (centres unmarked) [I-362]
0.1 to 0.5 nM | Cc1nc2c(Nc3ccccc3S(C)(=O)=O)cc(NC(=O)C3CC3)nc2[nH]1 [I-177, N-(2-methyl-7-((2-(methylsulfonyl)phenyl)amino)-3H-imidazo[4,5-b]pyridin-5-yl)cyclopropanecarboxamide]
0.1 to 0.5 nM | Cc1nc2c(Nc3ccc(C4CCOC4)cc3S(C)(=O)=O)cc(NC(=O)C3CC3)nc2[nH]1 (centres unmarked) [I-388, N-(2-methyl-7-((2-(methylsulfonyl)-4-(tetrahydrofuran-3-yl)phenyl)amino)-3H-imidazo[4,5-b]pyridin-5-yl)cyclopropanecarboxamide]
0.1 to 0.5 nM | [2H]C([2H])([2H])N(c1ccccc1Nc1cc(Nc2cc(C)nc(C)n2)nc2[nH]c(C(F)F)nc12)S(=O)(=O)C([2H])([2H])[2H] [I-457, N-(2-((2-(difluoromethyl)-5-((2,6-dimethylpyrimidin-4-yl)amino)-3H-imidazo[4,5-b]pyridin-7-yl)amino)phenyl)-N-(methyl-d3)methanesulfonamide-d3]
< 0.1 nM | Cc1nc2c(Nc3ccc(-c4cn(C)cn4)cc3S(C)(=O)=O)cc(NC(=O)[C@@H]3C[C@@H]3F)nc2[nH]1 [I-250, (1S,2S)-2-fluoro-N-(2-methyl-7-((4-(1-methyl-1H-imidazol-4-yl)-2-(methylsulfonyl)phenyl)amino)-3H-imidazo[4,5-b]pyridin-5-yl)cyclopropane-1-carboxamide]
< 0.1 nM | Cc1nc2c(Nc3ccc(F)cc3S(C)(=O)=O)cc(Nc3ccc(OC4CCOCC4)c(C#N)n3)nc2[nH]1 [I-626, 6-((7-((4-fluoro-2-(methylsulfonyl)phenyl)amino)-2-methyl-3H-imidazo[4,5-b]pyridin-5-yl)amino)-3-((tetrahydro-2H-pyran-4-yl)oxy)picolinonitrile]
< 0.1 nM | Cc1cc(Nc2cc(Nc3ccc([C@@H]4CCCCO4)cc3S(C)(=O)=O)c3nc(C)[nH]c3n2)nc(C)n1 [I-530]
0.1 to 0.5 nM | CS(=O)(=O)c1cc(F)ccc1Nc1cc(Nc2cccc(C#N)n2)nc2[nH]c(C(F)F)nc12 [I-552, 6-((2-(difluoromethyl)-7-((4-fluoro-2-(methylsulfonyl)phenyl)amino)-3H-imidazo[4,5-b]pyridin-5-yl)amino)picolinonitrile]
